The values below are quoted from earlier work in patent US8263564B2, “Iron-carbohydrate complex compounds” (Vifor (International) AG, priority 2007, dated 2012).

For the data set, the system named is mice. As to conditions: intravenously on mice; Berenbaum et al. 1960 cited in Geisser et al. 1992.

Molecules are shown by their SMILES.

For `O=S(=O)([O-])[O-].[Fe+2]` [Fe(II) sulfate], the LD50 is 11 mg of Fe/kg of body weight.
